The values that follow come from publication doi:10.1101/2021.01.09.426030v4 (biorxiv, 2022).

Among the test systems are BT333; BT179; BT112.
What all share (test): cells
Common to all, as to parameters: species or system GBM PDCLs
What all share (settings): 72 h, read-out: Erlotinib (IC50 µM)

What is called IC50 is the concentration needed to halve the response being measured.

Structures are written as SMILES.

As for `C#Cc1cccc(Nc2ncnc3cc(OCCOC)c(OCCOC)cc23)c1` [erlotinib], the values for the IC50 in the assay on BT333, with BT179 and with BT112 were above 20 µM, 11.7 µM and 18.5 µM, respectively.
